Reference: paper PMC6270530, “Structural Characterization of de Novo Designed L5K5W Model Peptide Isomers with Potent Antimicrobial and Varied Hemolytic Activities” (Molecules, 2013)
No end group written: not given here.

Tests used:
[1] = system: all of the 9 strains tested; assay type: cell-based, Gram-positive and Gram-negative bacteria; conditions: against all of the 9 strains tested
Procedure: (§1) Table 1 summarizes the MIC values of our model peptide isomers against various bacterial species, including four Gram-positive, five Gram-negative and a multi-drug resistant strain. […] In addition, all of the peptides were fairly active (MICs ≤ 16 μg/mL) against the MRSA-TK784 strain, which is not susceptible to β-lactam antibiotics and protein synthesis inhibitors and moderately resistant to vancomycin [21, 42].
(§2) The antimicrobial activity of each peptide was determined against four strains of Gram-positive bacteria (Bacillus subtilis ATCC 6633, Staphylococcus aureus ATCC 6538p, Staphylococcus epidermis ATCC 12228, and Micrococcus luteus ATCC 10240) and five strains of Gram-negative bacteria (Escherichia coli ATCC 25922, Shigella dysentariae ATCC 9752, Salmonella typhomurium ATCC 14028, Klebsiella pneumoniae ATCC 10031, and Pseudomonas aeruginosa ATCC 27853). In addition, a methicillin-resistant Staphylococcus aureus strain, MRSA-TK784 [21, 42], was employed as a multi-drug resistant bacterium. Antimicrobial susceptibility was measured as the minimal inhibitory concentration (MIC), which was determined by the standard broth microdilution method, as described previously. […] The tests were performed in triplicate, and the MIC values that were reproduced twice or three times in the three independent measurements were recorded.

[2] = system: Shigella dysentariae ATCC 9752; assay type: cell-based; conditions: broth microdilution, 1–128 μg/mL two-fold dilutions; triplicate, value reproduced twice or three times
Procedure: as §2

[3] = system: 4 Gram-positive strains tested; assay type: cell-based, Gram-positive bacteria; conditions: against 4 Gram-positive strains tested
Procedure: as §1, §2

[4] = system: 5 Gram-negative strains tested; assay type: cell-based, Gram-negative bacteria; conditions: against 5 Gram-negative strains tested
Procedure: as §1, §2

[5] = system: human red blood cells; assay type: cell-based
Procedure: The hemolytic assay was performed as described previously. In brief, suspensions of human red blood cells (10% v/v in PBS) were treated for 1 h with various concentrations (1–128 μg/mL, two-fold serial dilutions) of the peptides. The absorbance of the supernatant was then measured at 550 nm. The relative value to 100% hemolysis of human red blood cells treated with 0.2% Triton X-100 was defined as the percentage of hemolysis. The tests were performed using triplicate samples, and the average values of the three independent measurements were recorded. The minimal hemolytic concentration (MHC) value was determined as the lowest peptide concentration that produces more than 5% hemolysis.

[6] = system: MRSA-TK784; assay type: cell-based, methicillin-resistant Staphylococcus aureus; conditions: Methicillin-Resistant S. aureus; broth microdilution, 1–128 μg/mL two-fold dilutions; triplicate
Procedure: as §2

## KLLKKLLKWLK-NH2 [W9]
[1]
  GM (geometric mean of MICs), Gram (+,−): 2.3 µg/mL
[2]
  Minimal inhibitory concentration, S. dysentariae: 2 µg/mL
[3]
  GM (geometric mean of MICs), Gram (+): 2.4 µg/mL
[4]
  GM (geometric mean of MICs), Gram (−): 2.3 µg/mL

## KKLLKKLLKWL-NH2 [W10]
[1]
  GM (geometric mean of MICs), Gram (+,−): 1.5 µg/mL
[2]
  Minimal inhibitory concentration, S. dysentariae: 1 µg/mL
[3]
  GM (geometric mean of MICs), Gram (+): 1.2 µg/mL
[4]
  GM (geometric mean of MICs), Gram (−): 1.7 µg/mL

## LLKWLKKLLKK-NH2 [W4]
[1]
  GM (geometric mean of MICs), Gram (+,−): 2.9 µg/mL
[2]
  Minimal inhibitory concentration, S. dysentariae: 2 µg/mL
[3]
  GM (geometric mean of MICs), Gram (+): 2.4 µg/mL
[4]
  GM (geometric mean of MICs), Gram (−): 3.5 µg/mL

## KLLKWLKKLLK-NH2 [W5]
[1]
  GM (geometric mean of MICs), Gram (+,−): 2.3 µg/mL
[2]
  Minimal inhibitory concentration, S. dysentariae: 2 µg/mL
[3]
  GM (geometric mean of MICs), Gram (+): 2.0 µg/mL
[4]
  GM (geometric mean of MICs), Gram (−): 2.6 µg/mL

## KKLLKWLKKLL-NH2 [W6]
[1]
  GM (geometric mean of MICs), Gram (+,−): 3.2 µg/mL
[2]
  Minimal inhibitory concentration, S. dysentariae: 2 µg/mL
[4]
  GM (geometric mean of MICs), Gram (−): 3.5 µg/mL
[5]
  hemolytic activity (in words): somewhat hemolytic

## KWLKKLLKKLL-NH2 [W2]
[1]
  GM (geometric mean of MICs), Gram (+,−): 2.3 µg/mL
[2]
  Minimal inhibitory concentration, S. dysentariae: 1 µg/mL
[3]
  GM (geometric mean of MICs), Gram (+): 2.4 µg/mL
[4]
  GM (geometric mean of MICs), Gram (−): 2.3 µg/mL

## LLKKLLKWLKK-NH2 [W8]
[1]
  GM (geometric mean of MICs), Gram (+,−): 4.0 µg/mL
[2]
  Minimal inhibitory concentration, S. dysentariae: 4 µg/mL
[3]
  GM (geometric mean of MICs), Gram (+): 3.4 µg/mL
[4]
  GM (geometric mean of MICs), Gram (−): 4.6 µg/mL

## WLKKLLKKLLK-NH2 [W1]
[6]
  Minimal inhibitory concentration, MRSA-TK784: 8 µg/mL
[1]
  GM (geometric mean of MICs), Gram (+,−): 2.7 µg/mL
[2]
  Minimal inhibitory concentration, S. dysentariae: 2 µg/mL
[3]
  GM (geometric mean of MICs), Gram (+): 2.4 µg/mL
[4]
  GM (geometric mean of MICs), Gram (−): 3.0 µg/mL

## LKKLLKKLLKW-NH2 [W11]
[6]
  Minimal inhibitory concentration, MRSA-TK784: 16 µg/mL
[1]
  GM (geometric mean of MICs), Gram (+,−): 2.9 µg/mL
[2]
  Minimal inhibitory concentration, S. dysentariae: 2 µg/mL
[3]
  GM (geometric mean of MICs), Gram (+): 2.4 µg/mL
[4]
  GM (geometric mean of MICs), Gram (−): 3.5 µg/mL

## LKKLLKWLKKL-NH2 [W7]
[1]
  GM (geometric mean of MICs), Gram (+,−): 2.7 µg/mL
[2]
  Minimal inhibitory concentration, S. dysentariae: 2 µg/mL
[3]
  GM (geometric mean of MICs), Gram (+): 2.4 µg/mL
[4]
  GM (geometric mean of MICs), Gram (−): 3.0 µg/mL

## LKWLKKLLKKL-NH2 [W3]
[1]
  GM (geometric mean of MICs), Gram (+,−): 3.2 µg/mL
[2]
  Minimal inhibitory concentration, S. dysentariae: 2 µg/mL
[4]
  GM (geometric mean of MICs), Gram (−): 3.5 µg/mL
